# Laboratory results taken from patent US11414377B2, “Modulator of metabotropic and ionotropic transmembrane receptors and use thereof” (IBD THERAPEUTICS LLC, priority 2018, dated 2022).
# pIC50: −log10 of the molar value.
# Experiments:
# [1] = test system: male and female rats; assay: Acute toxicity at single administration, rats; assay type: in vivo; conditions: for Body weight gain / Death of animals: male and female; for Death of animals: 14 days observation
# Description: The acute toxicity study was performed on 24 male and 24 female rats, and also on 24 male and 24 female mice. Before the administration of the Compound I, the body weight of the animals was recorded, after 1 hour of the administration, the state of the experimental animals was observed. Then, the body weights of rats and mice were recorded daily for 14 days after the administration of the substance, and the examination was carried out to detect the cases of death and abnormality in the state of the animals.
# Compound I was administered to rats and mice intragastrically at a dose of 5000 mg/kg, intraperitoneally—at a dose of 2000 mg/kg. Control groups (female and male objects) were received a solvent (0.1% Tween-80 solution in water).
# [2] = Pharmacokinetics and tissue bioavailability after oral administration to rats; assay type: in vivo; conditions: oral 10 mg/kg (therapeutic dose)
# Description: To confirm low systemic availability of Compound 1, the study of pharmacokinetics and bioavailability of Compound 1 was carried out after the oral administration to rats in a dose of 10 mg/kg. The study was carried out on 18 male Vistar rats. Blood sampling in the animals was carried out at given time points for 24 h after the administration of the preparation. The content of Compound 1 in plasma samples was analyzed by HPLC-MS/MS, the […] was 1 ng/ml.
# [3] = test system: rats; assay: Stress-induced defecation model in rats; assay type: in vivo; conditions: 40 minutes restraint, control 2.65 ± 0.35, intact 0.24 ± 0.05
# Description: The study of the activity of Compound I in the stress-induced defecation model was carried out by a standard procedure (Taguchi R., Shikata K., Furuya Y, Hirakawa T., Ino M., Shin K., Shibata H. Selective corticotropin-releasing factor 1 receptor antagonist E2508 reduces restraint stress-induced defecation and visceral pain in rat models//Psychoneuroendocrinology. 2017. P. 110-115).
# Rats were adapted to a room in which the experiment was conducted for 24 hours. The study was carried out on satisfied rats. Compound I was administered once, intragastrically. After 1 hour, the rat was placed in the cloth so that the front paws were pressed to the body. In such a form, the rat was placed into the individual cage on the gating and was left for 40 minutes. Summarily the whole of excrement released during the observation period of 40 minutes then was weighed.
# For all data, descriptive statistics is applied: the arithmetic mean (M) and the standard error of the mean (m) are counted up. The normality of distribution of the values obtained in the course of the experiment was checked with the aid of the Shapiro-Wilk test. In the case of normal distribution, 1-way ANOVA (with […] post hoc test) was used to evaluate the inter-group distinctions. In the case of the distribution that is other than normal one, the […] was used for the comparison of several groups.
# [4] = test system: guinea pigs of Agouti line; assay: Capsaicin cough model in guinea pigs, inhalation administration; assay type: in vivo
# [5] = test system: guinea pigs of Agouti line; assay: Citrate cough model in guinea pigs, inhalation administration; assay type: in vivo; conditions: 0.25 mg/kg by inhalation 15 minutes prior to citric acid
# [6] = molecular target: human recombinant μ-opioid receptor (Homo sapiens, UniProt P35372); assay: μ-opioid receptor radioligand displacement ([3H]DAMGO); assay type: binding
# [7] = molecular target: T1, NK3R (Homo sapiens, UniProt P29371); assay: Effect on activity of tachykinin receptor type 3 (intracellular calcium, fluorescence); assay type: cell-based; conditions: CHO-K1 cells expressing NK3R, agonist [MePhe10]-NKB 1 nM, read-out: IC50, antagonist of tachykinin receptor type 3
# T1 construct: expressed in transfected cells; host or cells: CHO-K1 cells
# T1 sequence (P29371 1-465): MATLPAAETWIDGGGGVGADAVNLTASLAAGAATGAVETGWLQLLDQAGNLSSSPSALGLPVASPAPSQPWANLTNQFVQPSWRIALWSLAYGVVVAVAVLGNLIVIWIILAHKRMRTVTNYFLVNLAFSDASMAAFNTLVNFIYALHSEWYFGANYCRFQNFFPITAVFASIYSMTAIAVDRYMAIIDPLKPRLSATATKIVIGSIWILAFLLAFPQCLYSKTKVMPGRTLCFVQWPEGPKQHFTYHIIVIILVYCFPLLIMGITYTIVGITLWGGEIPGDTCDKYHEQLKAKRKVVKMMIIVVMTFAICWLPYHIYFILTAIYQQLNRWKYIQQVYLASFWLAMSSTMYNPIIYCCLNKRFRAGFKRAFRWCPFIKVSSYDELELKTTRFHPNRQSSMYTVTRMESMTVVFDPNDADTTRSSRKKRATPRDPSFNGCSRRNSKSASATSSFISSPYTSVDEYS
# Description: Compound I was dissolved in DMSO to a concentration of 100 mM; then the stock solution was serially diluted with DMSO. The maximal start concentration of substance is 100 μM. The effect was determined at 5 concentrations of test compounds, each concentration was investigated twice. CHO-K1 cells expressing NK3R were used in the experiment, said cells after the preincubation with an agonist [MePhe10]-NKB (1 nM) were incubated with the test compound. The activity of receptors was determined by the intracellular calcium concentration using fluorescence spectroscopy (Br J Pharmacol. 1999 October; 128(3):627-36).
# Sequence of human recombinant μ-opioid receptor (P35372 whole entry): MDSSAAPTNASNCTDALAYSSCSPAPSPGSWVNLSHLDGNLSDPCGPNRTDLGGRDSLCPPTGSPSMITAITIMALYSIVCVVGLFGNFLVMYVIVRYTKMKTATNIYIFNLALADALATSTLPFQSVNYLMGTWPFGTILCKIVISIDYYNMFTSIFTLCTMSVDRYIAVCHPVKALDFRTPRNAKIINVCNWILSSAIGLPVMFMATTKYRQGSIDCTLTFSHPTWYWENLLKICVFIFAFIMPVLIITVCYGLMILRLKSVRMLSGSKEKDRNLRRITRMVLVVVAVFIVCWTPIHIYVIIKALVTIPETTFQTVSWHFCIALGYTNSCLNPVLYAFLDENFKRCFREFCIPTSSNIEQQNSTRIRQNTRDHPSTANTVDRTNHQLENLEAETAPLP
smiles,measurement,setting,value
"O=C(Cc1ccc(O)cc1)N[C@@H](Cc1ccccc1)C(=O)NCCc1ccccc1 [Compound I, 2-phenylethylamide N-(p-hydroxyphenylacetyl)phenylalanine]","Differences in the spontaneous behaviour, responses to the caused reactions","[1]; intragastrically 5000 mg/kg, intraperitoneally 2000 mg/kg",not observed
same,Body weight gain,[1]; intragastrically 5000 mg/kg,lag in body weight gain
same,Death of animals,[1]; intragastrically 5000 mg/kg,did not cause death of animals
same,Body weight gain,[1]; intraperitoneally 2000 mg/kg,lag in body weight gain
same,Death of animals,[1]; intraperitoneally 2000 mg/kg,did not cause death of animals
same,Penetration into the brain,[2],does not penetrate into the brain of rats
same,Weight of excrement,[3]; 0.3 mg/kg once intragastrically,2.35 ± 0.35 g
same,Weight of excrement,[3]; 1 mg/kg once intragastrically,1.43 ± 0.12 g
same,Weight of excrement,[3]; 3 mg/kg once intragastrically,1.00 ± 0.06& g
same,Suppression of cough (% from the control),[4]; 0.25 mg/kg by inhalation 15 minutes before capsaicin,46.7%
same,A number of cough attacks for 15 minutes from the start of inhalation (test),"[4]; 0.25 mg/kg by inhalation 15 minutes before capsaicin 30 μM, control 15.2 ± 0.8",8.1 ± 0.2*&
same,Suppression of cough (% from the control of pathology) in the chamber,[5],39.1%
same,A number of cough attacks during the inhalation for 10 minutes,[5]; control 48.8 ± 4,29.7 ± 2.7*&
same,pIC50,[6],5.39
same,pIC50,[7],4.82
